Assay results as given in PubChem BioAssay (NCI).
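All cell lines were grown in 96-well plates and treated with compound for 48 hours. The concentration for 50% growth inhibition is given as GI50. At the TGI there is no net growth.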

Assays:
Assay in all cases: DTP human tumour cell line panel, 48 h
[1] = tested on: DMS 273 small cell lung
[2] = tested on: HCT-15 colon
[3] = tested on: K-562 leukemia
[4] = tested on: M14 melanoma
[5] = tested on: OVCAR-8 ovarian
[6] = tested on: RXF 393 renal
[7] = tested on: SK-MEL-2 melanoma
[8] = tested on: UACC-62 melanoma
[9] = tested on: SF-295 CNS
[10] = tested on: M19-MEL melanoma

SMILES | TGI [1] | TGI [2] | TGI [3] | TGI [4] | TGI [5] | TGI [6] | TGI [7] | TGI [8] | TGI [9] | GI50 [2] | GI50 [3] | GI50 [4] | GI50 [5] | GI50 [6] | GI50 [9] | GI50 [7] | GI50 [8] | TGI [10] | GI50 [1]
COc1ccc(C(=O)C(C(=O)C(=O)Nc2nccs2)c2ccc(OC)cc2)cc1 (centres undefined) | > 100 µM | > 100 µM | > 100 µM | > 100 µM | > 100 µM | > 100 µM | > 100 µM | > 100 µM |  |  |  |  |  |  |  |  |  |  | 
CCCCN(CCCC)C(=O)C(=O)C(C)C(=O)CC (centres undefined) | > 100 µM | > 100 µM | > 100 µM | > 100 µM | > 100 µM |  | > 100 µM | > 100 µM | > 100 µM |  |  |  |  |  |  |  |  |  | 
COc1cc(NCc2ccccc2O)c2ncccc2c1 |  | > 100 µM | > 100 µM | 53.6 µM | > 100 µM | 68.8 µM | 50.3 µM | 53.1 µM | 67.4 µM | 7.09 µM | 17.2 µM | 19 µM | 25.4 µM | 18.5 µM | 20.6 µM | 18.1 µM | 11.2 µM |  | 
Cc1cccc(C)c1NC(=O)CCC(=O)NC(N)=S |  | > 100 µM | > 100 µM | > 100 µM | > 100 µM | > 100 µM |  | > 100 µM | > 100 µM |  |  |  |  |  |  |  |  | > 100 µM | 
O=[N+]([O-])[O-].O=[N+]([O-])[O-].[Au].[Au].c1ccc([P-]c2ccccc2)cc1.c1ccc([P-]c2ccccc2)cc1 | > 100 µM | > 100 µM | > 100 µM | 52.9 µM | > 100 µM |  | 58.1 µM | 65.3 µM | > 100 µM | 27 µM | 23.6 µM | 22.6 µM | 35.3 µM |  | > 100 µM | 31.1 µM | 30 µM |  | 39.2 µM
CC(C)(C)[Si](C)(C)OCC1C=CC(n2cnc3c(N)ncnc32)O1 (centres undefined) |  | > 100 µM | 54 µM | 66.9 µM | > 100 µM | 73 µM | > 100 µM | > 69.5 µM | > 100 µM |  |  |  |  |  |  |  |  |  | 
COc1ccc(Cl)cc1NC(=O)c1cccc([N+](=O)[O-])c1O |  | > 100 µM | > 100 µM | > 100 µM | > 100 µM | 53.2 µM | 24.8 µM | 24.3 µM | 55.3 µM |  |  |  |  |  |  |  |  | > 100 µM | 
CC1SC(c2c(Cl)cccc2Cl)N(NC(=O)C(O)c2ccccc2)C1=O (centres undefined) |  | > 100 µM | > 100 µM | > 100 µM | > 100 µM | > 100 µM | > 100 µM | > 100 µM | > 100 µM | 47.3 µM | 39.9 µM | 87 µM | > 100 µM | 93.2 µM | > 100 µM | > 100 µM | 50.2 µM |  | 
CC(=O)c1cc2c(c3ccsc13)-c1ccccc1CC2 |  | > 100 µM | 90.5 µM | 89.8 µM | > 100 µM | > 100 µM | 83 µM | > 100 µM | > 100 µM | 22.3 µM | 14.3 µM | 27.7 µM | 53.1 µM | 28.6 µM | 26.5 µM | 26.5 µM | 7.71 µM |  | 
COc1cc(C2=NN(c3ccc(S(N)(=O)=O)cc3)C(c3ccc(Cl)cc3)C2)cc(OC)c1OC (centres undefined) |  | > 100 µM | > 100 µM | > 100 µM | > 100 µM | > 100 µM | 14.1 µM | > 100 µM | 6.55 µM | 3.77 µM | 5.67 µM | 4.8 µM | 4.85 µM | 3.05 µM | 2.53 µM | 3.35 µM | 4.12 µM |  | 
COc1cc2cc(Oc3ccc(NC(=O)Nc4ccc(Cl)c(C(F)(F)F)c4)cc3)c(C)nc2cc1OC |  | 4.86 µM | 4.81 µM | 5.25 µM | 4.55 µM | 4.21 µM | 1.94 µM | 6.01 µM | 2.91 µM | 1.15 µM | 1.11 µM | 1.25 µM | 1.04 µM | 1.33 µM | 0.899 µM | 0.799 µM | 1.24 µM |  | 
C/C1=C\C/C=C(\C)[C@H]2CC(CC/C(C)=C/CC1)[C@](C)(C=O)O2 |  | > 100 µM | > 100 µM | > 100 µM | > 100 µM | > 100 µM | > 100 µM | > 100 µM | 96.2 µM | > 100 µM | 54.8 µM | 51.9 µM | > 100 µM | > 100 µM | 28.9 µM | > 100 µM | > 100 µM |  | 
CO[C@@]12C[C@H]3[C@@H]([C@@H](O)[C@@H](OC(=O)/C=C/c4ccccc4)[C@@]4(O)C(C)(C)CCC[C@]34C)[C@@H](C)C1=CC(=O)O2 |  | 19.2 µM | > 100 µM | > 100 µM | 25.6 µM | 7.93 µM | > 100 µM | 5.62 µM | 44.1 µM | 4.51 µM | 12.5 µM | 18.2 µM | 5.24 µM | 1.33 µM | 3.84 µM | 27 µM | 1.55 µM |  | 
OCC#Cc1ccccc1C#Cc1ccc(C#Cc2ccccc2C#CCO)s1 |  | 91.1 µM | > 100 µM | 49 µM | 45.6 µM | 39.6 µM | 35.8 µM | 43.4 µM | 29.2 µM | 25.3 µM | 64 µM | 23.3 µM | 21.2 µM | 19.6 µM | 15.1 µM | 14.6 µM | 19.5 µM |  | 
C#Cc1cccc(Oc2ccc(NC(=O)CCl)cc2)c1 |  | > 82.5 µM | > 82.5 µM | > 82.5 µM | > 82.5 µM | > 82.5 µM | > 82.5 µM | > 82.5 µM | > 82.5 µM | 6.36 µM | 34.4 µM | 72.8 µM | 64.3 µM | > 82.5 µM | > 82.5 µM | > 82.5 µM | > 82.5 µM |  | 
CC(O)(CNS(=O)(=O)c1ccccc1)c1ccccc1 (centres undefined) |  | > 100 µM | > 100 µM | > 100 µM | > 100 µM | > 100 µM | > 100 µM | > 100 µM | > 100 µM |  |  |  |  |  |  |  |  |  | 
